Experimental data published in ChEMBL document CHEMBL3992552, “Mechanisms of action and structure-activity relationships of cytotoxic flavokawain derivatives” (Bioorg Med Chem, 2017).
Calls of active or inactive are those of the source. The rule behind the calls is not given here.

Legend:
Caco-2 [1] = test: Cytotoxicity against human Caco2 cells assessed as cell survival at 50 uM after 48 hrs by Hoechst 33342 staining based assay relative to control; format: functional; settings: Caco-2, 48 h, read-out: Survival
NCI-H727 [2] = test: Cell cycle arrest in human NCI-H727 cells harboring p53 mutant assessed as mitotic index at 25 uM measured after 48 hrs by Hoechst staining based fluorescence assay (reference value: 1.1); format: functional
Caco-2 [3] = test: Cell cycle arrest in human Caco2 cells assessed as mitotic index at 25 uM measured after 48 hrs by Hoechst staining based fluorescence assay (reference value: 3.6); format: functional
Huh-7 [4] = test: Cell cycle arrest in human HuH7 cells assessed as accumulation at S phase at 25 uM measured after 48 hrs by Hoechst/BrdU staining based fluorescence assay (reference value: 44%); format: functional
Caco-2 [5] = test: Cell cycle arrest in human Caco2 cells assessed as accumulation at S phase at 25 uM measured after 48 hrs by Hoechst/BrdU staining based fluorescence assay (reference value: […]); format: functional
HaCaT [6] = test: Cell cycle arrest in human HaCaT cells harboring […] p53 assessed as accumulation at S phase at 10 uM measured after 48 hrs by Hoechst/BrdU staining based fluorescence assay (reference value: 52.3%); format: functional
Caco-2 [7] = test: Cell cycle arrest in human Caco2 cells assessed as mitotic index at 10 uM measured after 48 hrs by Hoechst staining based fluorescence assay (reference value: 3.6); format: functional
HCT-116 [8] = test: Induction of apoptosis in human HCT116 cells harboring wild-type p53 assessed as increase in cleaved caspase3 at 2 times IC50 after 48 hrs by Hoechst staining based assay; format: functional, cell-based
MCF7 [9] = test: Induction of apoptosis in human MCF7 cells harboring wild-type p53 assessed as upregulation of cyclinB1 measured after 18 hrs by Hoechst staining based assay; format: functional, cell-based
HCT-116 [10] = test: Cytotoxicity against human HCT116 cells assessed as cell survival at 50 uM after 48 hrs by Hoechst 33342 staining based assay relative to control; format: functional; settings: HCT-116, 48 h, read-out: Survival
NCI-H727 [11] = test: Cell cycle arrest in human NCI-H727 cells harboring p53 mutant assessed as accumulation at S phase at 25 uM measured after 48 hrs by Hoechst/BrdU staining based fluorescence assay (reference value: 40.3%); format: functional
HaCaT [12] = test: Cytotoxicity against human HaCaT cells assessed as cell viability after 48 hrs by Hoechst 33342 staining based assay; format: functional
PC-3 [13] = test: Induction of apoptosis in human PC3 cells harboring p53 mutant assessed as increase in late apoptosis at 2 times IC50 after 48 hrs by YoPro/propidium iodide/Hoechst staining based assay; format: functional, cell-based
[14] = Selectivity index, ratio of IC50 for human fibroblasts to IC50 for human HaCaT cells
MDA-MB-231 [15] = test: Cytotoxicity against human MDA-MB-231 cells assessed as cell viability after 48 hrs by Hoechst 33342 staining based assay; format: functional; settings: MDA-MB-231, 48 h
[16] = Cytotoxicity against human fibroblasts assessed as cell survival at 50 uM after 48 hrs by Hoechst 33342 staining based assay relative to control; set-up: species or system Fibroblast; settings: read-out: Survival
HCT-116 [17] = test: Cytotoxicity against human HCT116 cells assessed as cell viability after 48 hrs by Hoechst 33342 staining based assay; format: functional; settings: HCT-116, 48 h
MCF7 [18] = test: Induction of apoptosis in human MCF7 cells harboring wild-type p53 assessed as increase in early apoptosis at 2 times IC50 after 24 hrs by YoPro/propidium iodide/Hoechst staining based assay; format: functional, cell-based
[19] = Selectivity index, ratio of IC50 for human fibroblasts to IC50 for human NCI-H727 cells
Huh-7 [20] = test: Cytotoxicity against human HuH7 cells assessed as cell survival at 50 uM after 48 hrs by Hoechst 33342 staining based assay relative to control; format: functional; settings: Huh-7, 48 h, read-out: Survival
Huh-7 [21] = test: Cell cycle arrest in human HuH7 cells assessed as accumulation at S phase at 10 uM measured after 48 hrs by Hoechst/BrdU staining based fluorescence assay (reference value: 44%); format: functional
PC-3 [22] = test: Cell cycle arrest in human PC3 cells harboring p53 mutant assessed as accumulation at S phase at 10 uM measured after 48 hrs by Hoechst/BrdU staining based fluorescence assay (reference value: 40.8%); format: functional
[23] = Selectivity index, ratio of IC50 for human fibroblasts to IC50 for human RL cells
HCT-116 [24] = test: Cell cycle arrest in human HCT116 cells assessed as accumulation at G1/S phase by Hoechst staining based fluorescence assay; format: functional
MDA-MB-231 [25] = test: Cell cycle arrest in human MDA-MB-231 cells harboring p53 mutant assessed as accumulation at S phase at 10 uM measured after 48 hrs by Hoechst/BrdU staining based fluorescence assay (reference value: 42.2%); format: functional
Caco-2 [26] = test: Cytotoxicity against human Caco2 cells assessed as cell viability after 48 hrs by Hoechst 33342 staining based assay; format: functional; settings: Caco-2, 48 h
PC-3 [27] = test: Cytotoxicity against human PC3 cells assessed as cell survival at 50 uM after 48 hrs by Hoechst 33342 staining based assay relative to control; format: functional; settings: PC-3, 48 h, read-out: Survival
HaCaT [28] = test: Cytotoxicity against human HaCaT cells assessed as cell survival at 50 uM after 48 hrs by Hoechst 33342 staining based assay relative to control; format: functional; settings: read-out: Survival
HCT-116 [29] = test: Cell cycle arrest in human HCT116 cells harboring wild-type p53 assessed as mitotic index at 10 uM measured after 48 hrs by Hoechst staining based fluorescence assay (reference value: 2.3); format: functional
NCI-H727 [30] = test: Cytotoxicity against human NCI-H727 cells assessed as cell viability after 48 hrs by Hoechst 33342 staining based assay; format: functional; settings: NCI-H727, 48 h
[31] = Selectivity index, ratio of IC50 for human fibroblasts to IC50 for human PC3 cells
NCI-H727 [32] = test: Cytotoxicity against human NCI-H727 cells assessed as cell survival at 50 uM after 48 hrs by Hoechst 33342 staining based assay relative to control; format: functional; settings: NCI-H727, 48 h, read-out: Survival
HCT-116 [33] = test: Induction of apoptosis in human HCT116 cells harboring wild-type p53 assessed as increase in early apoptosis at 2 times IC50 after 48 hrs by YoPro/propidium iodide/Hoechst staining based assay; format: functional, cell-based
MCF7 [34] = test: Cytotoxicity against human MCF7 assessed as cell viability after 48 hrs by Hoechst 33342 staining based assay; format: functional; settings: MCF7, 48 h
[35] = Selectivity index, ratio of IC50 for human fibroblasts to IC50 for human HCT116 cells
MDA-MB-231 [36] = test: Induction of apoptosis in human MDA-MB-231 cells harboring p53 mutant assessed as increase in early apoptosis at 2 times IC50 after 24 hrs by YoPro/propidium iodide/Hoechst staining based assay; format: functional, cell-based
MDA-MB-231 [37] = test: Induction of apoptosis in human MDA-MB-231 cells harboring p53 mutant assessed as increase in late apoptosis at 2 times IC50 after 24 hrs by YoPro/propidium iodide/Hoechst staining based assay; format: functional, cell-based
MDA-MB-231 [38] = test: Cell cycle arrest in human MDA-MB-231 cells assessed as accumulation at M phase by Hoechst staining based fluorescence assay; format: functional

Structure (SMILES) | viability at 50 µM (Caco-2 [1]) [%] | Activity_index (Caco-2 [3]) | Activity (Huh-7 [4]) | Activity (Caco-2 [5]) [%] | Activity (HaCaT [6]) | Activity_index (Caco-2 [7]) | Activity (HCT-116 [8]) | Activity (MCF7 [9]) | viability at 50 µM (HCT-116 [10]) [%] | Activity (NCI-H727 [11]) | IC50 (HaCaT [12]) [µM] | Activity (PC-3 [13]) | IC50 (MDA-MB-231 [15]) [µM] | viability at 48 h, 50 µM [16] [%] | IC50 (HCT-116 [17]) [µM] | Activity (MCF7 [18]) | viability at 50 µM (Huh-7 [20]) [%] | Activity (Huh-7 [21]) | Activity (PC-3 [22]) [%] | Ratio IC50 [23] | also measured
COc1cc(O)c(C(=O)/C=C/c2ccccc2SC)c(OC)c1 | 23 | 21.9 | 37% | 37 | 51% | 6 | Active | Active | 1 | 12% | 10.5 | Active | > 20 | 65 | 10 | Active | 38 | 50% | 35 | 4.1 | Activity_index (NCI-H727 [2]): 0.4; Ratio IC50 [14]: 3.4; Ratio IC50 [19]: 4; Activity (HCT-116 [24]): Active; Activity (MDA-MB-231 [25]): inactive; IC50 (Caco-2 [26]): 9.6 µM; viability at 50 µM (PC-3 [27]): 35%; viability at 50 µM (HaCaT [28]): 22%; Activity_index (HCT-116 [29]): 0.8; IC50 (NCI-H727 [30]): 9 µM; Ratio IC50 [31]: 4.1; viability at 50 µM (NCI-H727 [32]): 8%; Activity (HCT-116 [33]): Active; IC50 (MCF7 [34]): 15.9 µM; Ratio IC50 [35]: 3.6
COc1cc(OC)c(C(=O)/C=C/c2ccc(F)cc2)c(OC)c1 | 3 | 4.2 | 1.1% | 13 | 20% | 32 | Active | Active | 1 | 4.5% | 7.6 | Active | 10.7 | 78 | 6.2 | Active | 8 | 44% | 27 | >7.8 | Activity_index (NCI-H727 [2]): 0.4; Activity (MDA-MB-231 [36]): Active; Ratio IC50 [14]: >6.6; Activity (MDA-MB-231 [37]): Active; Ratio IC50 [19]: >9.1; Activity (HCT-116 [24]): Active; Activity (MDA-MB-231 [25]): 43%; IC50 (Caco-2 [26]): 5.5 µM; viability at 50 µM (PC-3 [27]): 26%; viability at 50 µM (HaCaT [28]): 21%; Activity_index (HCT-116 [29]): 1.3; IC50 (NCI-H727 [30]): 5.5 µM; Activity (MDA-MB-231 [38]): Active; Ratio IC50 [31]: >9.1; viability at 50 µM (NCI-H727 [32]): 4%; Activity (HCT-116 [33]): Active; IC50 (MCF7 [34]): 7.7 µM; Ratio IC50 [35]: >8.1
COc1cc(O)c(C(=O)/C=C/c2ccc(F)cc2)c(OC)c1 | 45 | 24.8 | inactive | 30 | inactive | 6.3 | Active | Active | 25 | inactive | > 20 | Active | > 20 | > 80 | 12.4 | Active | 66 | inactive | 37 | >5.4 | Activity (NCI-H727 [2]): inactive; Activity (HCT-116 [24]): Active; Activity (MDA-MB-231 [25]): inactive; IC50 (Caco-2 [26]): 9.2 µM; viability at 50 µM (PC-3 [27]): 56%; viability at 50 µM (HaCaT [28]): 36%; Activity_index (HCT-116 [29]): 1.2; IC50 (NCI-H727 [30]): > 20 µM; Ratio IC50 [31]: >3.8; viability at 50 µM (NCI-H727 [32]): 54%; Activity (HCT-116 [33]): Active; IC50 (MCF7 [34]): 8.8 µM; Ratio IC50 [35]: >4
COc1cc(OC)c(C(=O)/C=C/c2ccccc2SC)c(OC)c1 | 17 | 4.2 | 0.3% | 2.2 | 24% | 29.3 | Active | Active | 0 | 3% | 7.7 | Active | 9.9 | 74 | 6.8 | Active | 4 | 37% | 30 | 3.8 | Activity_index (NCI-H727 [2]): 0; Activity (MDA-MB-231 [36]): Active; Ratio IC50 [14]: 4.1; Activity (MDA-MB-231 [37]): Active; Ratio IC50 [19]: 3.7; Activity (HCT-116 [24]): Active; Activity (MDA-MB-231 [25]): 48%; IC50 (Caco-2 [26]): 8.8 µM; viability at 50 µM (PC-3 [27]): 30%; viability at 50 µM (HaCaT [28]): 6%; Activity_index (HCT-116 [29]): 0.6; IC50 (NCI-H727 [30]): 8.7 µM; Activity (MDA-MB-231 [38]): Active; Ratio IC50 [31]: 4.2; viability at 50 µM (NCI-H727 [32]): 1%; Activity (HCT-116 [33]): Active; IC50 (MCF7 [34]): 9.3 µM; Ratio IC50 [35]: 4.7
COc1cc(O)c(C(=O)/C=C/c2ccccc2OC)c(OC)c1 | 43 | 21.5 | inactive | 37 | 49% | 6.8 | Active | Active | 8 | 14% | 10.9 | Active | > 20 | 71 | 9.2 | Active | 39 | inactive | 36 | 3.6 | Activity_index (NCI-H727 [2]): 0.5; Ratio IC50 [14]: 3.3; Ratio IC50 [19]: 3.3; Activity (HCT-116 [24]): Active; Activity (MDA-MB-231 [25]): inactive; IC50 (Caco-2 [26]): 10 µM; viability at 50 µM (PC-3 [27]): 32%; viability at 50 µM (HaCaT [28]): 30%; Activity_index (HCT-116 [29]): 1.2; IC50 (NCI-H727 [30]): 11 µM; Ratio IC50 [31]: 3.8; viability at 50 µM (NCI-H727 [32]): 11%; Activity (HCT-116 [33]): Active; IC50 (MCF7 [34]): 10.5 µM; Ratio IC50 [35]: 4
